From the kinase profiling compilation of Christmann-Franck et al. (2016)

Experiments:
Test in all cases: KINOMEscan competition binding
Settings in all cases: compound 10.0 µM
CSNK2A1 (human) = CSNK2A1 (human) (UniProt P68400)
PRKAA2 (human) = PRKAA2 (human) (UniProt P54646)
PTK6 (human) = PTK6 (human) (UniProt Q13882)
TESK1 (human) = TESK1 (human) (UniProt Q15569)
CLK1 (human) = CLK1 (human) (UniProt P49759)
PRKACB (human) = PRKACB (human) (UniProt P22694)
MAP4K1 (human) = MAP4K1 (human) (UniProt Q92918)
MAPK12 (human) = MAPK12 (human) (UniProt P53778)
MYO3B (human) = MYO3B (human) (UniProt Q8WXR4)
CHEK2 (human) = CHEK2 (human) (UniProt O96017)
MST1R (human) = MST1R (human) (UniProt Q04912)
FYN (human) = FYN (human) (UniProt P06241)
FGFR2 (human) = FGFR2 (human) (UniProt P21802)
DCLK2 (human) = DCLK2 (human) (UniProt Q8N568)
SIK2 (human) = SIK2 (human) (UniProt Q9H0K1)
TEC (human) = TEC (human) (UniProt P42680)
AXL (human) = AXL (human) (UniProt P30530)
PIK3C2B (human) = PIK3C2B (human) (UniProt O00750)
ACVR2B (human) = ACVR2B (human) (UniProt Q13705)
STK33 (human) = STK33 (human) (UniProt Q9BYT3)
ULK3 (human) = ULK3 (human) (UniProt Q6PHR2)
SRC (human) = SRC (human) (UniProt P12931)
SYK (human) = SYK (human) (UniProt P43405)
STK17A (human) = STK17A (human) (UniProt Q9UEE5)
BMPR2 (human) = BMPR2 (human) (UniProt Q13873)
CSNK1D (human) = CSNK1D (human) (UniProt P48730)
STK25 (human) = STK25 (human) (UniProt O00506)
TNNI3K (human) = TNNI3K (human) (UniProt Q59H18)
WEE2 (human) = WEE2 (human) (UniProt P0C1S8)
HIPK3 (human) = HIPK3 (human) (UniProt Q9H422)
MAP3K13 (human) = MAP3K13 (human) (UniProt O43283)
CDKL3 (human) = CDKL3 (human) (UniProt Q8IVW4)
MAST1 (human) = MAST1 (human) (UniProt Q9Y2H9)
NIM1 (human) = NIM1 (human) (UniProt Q8IY84)
PLK2 (human) = PLK2 (human) (UniProt Q9NYY3)
ERBB3 (human) = ERBB3 (human) (UniProt P21860)
GRK7 (human) = GRK7 (human) (UniProt Q8WTQ7)

Sequence of PIK3C2B (human) (O00750 whole entry, looked up): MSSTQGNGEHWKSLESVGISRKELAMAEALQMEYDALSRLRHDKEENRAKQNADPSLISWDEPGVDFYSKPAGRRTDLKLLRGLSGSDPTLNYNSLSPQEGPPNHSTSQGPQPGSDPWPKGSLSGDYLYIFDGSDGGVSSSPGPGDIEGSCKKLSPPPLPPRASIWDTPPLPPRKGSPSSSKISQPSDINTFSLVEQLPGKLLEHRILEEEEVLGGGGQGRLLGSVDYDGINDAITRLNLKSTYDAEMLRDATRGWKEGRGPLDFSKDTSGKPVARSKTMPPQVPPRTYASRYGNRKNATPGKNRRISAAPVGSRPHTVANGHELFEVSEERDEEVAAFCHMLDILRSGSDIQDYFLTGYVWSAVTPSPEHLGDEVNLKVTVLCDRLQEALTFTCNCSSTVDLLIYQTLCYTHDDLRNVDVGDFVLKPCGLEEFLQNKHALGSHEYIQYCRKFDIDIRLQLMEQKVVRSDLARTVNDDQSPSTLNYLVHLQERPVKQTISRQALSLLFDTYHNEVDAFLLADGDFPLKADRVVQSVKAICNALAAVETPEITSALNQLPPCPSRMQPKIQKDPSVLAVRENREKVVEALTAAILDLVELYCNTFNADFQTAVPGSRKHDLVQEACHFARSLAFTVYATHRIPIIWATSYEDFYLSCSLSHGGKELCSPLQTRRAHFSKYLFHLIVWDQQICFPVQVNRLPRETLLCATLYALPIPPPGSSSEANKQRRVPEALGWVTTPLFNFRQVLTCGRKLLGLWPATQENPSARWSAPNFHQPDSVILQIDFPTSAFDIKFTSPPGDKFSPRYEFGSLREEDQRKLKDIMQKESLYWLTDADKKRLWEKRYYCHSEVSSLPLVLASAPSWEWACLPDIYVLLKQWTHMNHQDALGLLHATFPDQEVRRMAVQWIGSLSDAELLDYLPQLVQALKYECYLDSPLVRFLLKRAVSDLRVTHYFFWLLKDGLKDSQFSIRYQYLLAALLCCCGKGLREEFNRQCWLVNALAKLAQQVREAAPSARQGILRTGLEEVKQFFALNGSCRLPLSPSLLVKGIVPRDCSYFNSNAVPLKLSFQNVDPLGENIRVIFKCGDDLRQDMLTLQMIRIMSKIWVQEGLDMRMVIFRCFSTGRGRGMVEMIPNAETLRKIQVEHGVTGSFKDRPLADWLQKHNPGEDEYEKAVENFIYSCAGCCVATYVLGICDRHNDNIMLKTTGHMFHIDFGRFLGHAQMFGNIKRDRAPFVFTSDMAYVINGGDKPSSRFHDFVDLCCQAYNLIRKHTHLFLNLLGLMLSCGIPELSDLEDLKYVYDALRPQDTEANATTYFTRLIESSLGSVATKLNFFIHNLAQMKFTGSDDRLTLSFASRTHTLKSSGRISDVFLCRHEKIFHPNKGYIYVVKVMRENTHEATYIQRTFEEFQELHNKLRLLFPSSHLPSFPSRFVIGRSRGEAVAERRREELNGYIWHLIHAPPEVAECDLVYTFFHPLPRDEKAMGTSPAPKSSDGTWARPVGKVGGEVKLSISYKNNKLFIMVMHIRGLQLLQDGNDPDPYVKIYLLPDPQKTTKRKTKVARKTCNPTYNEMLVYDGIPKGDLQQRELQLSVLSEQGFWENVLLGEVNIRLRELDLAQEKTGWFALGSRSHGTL
Sequence of MAPK12 (human) (P53778 whole entry, looked up): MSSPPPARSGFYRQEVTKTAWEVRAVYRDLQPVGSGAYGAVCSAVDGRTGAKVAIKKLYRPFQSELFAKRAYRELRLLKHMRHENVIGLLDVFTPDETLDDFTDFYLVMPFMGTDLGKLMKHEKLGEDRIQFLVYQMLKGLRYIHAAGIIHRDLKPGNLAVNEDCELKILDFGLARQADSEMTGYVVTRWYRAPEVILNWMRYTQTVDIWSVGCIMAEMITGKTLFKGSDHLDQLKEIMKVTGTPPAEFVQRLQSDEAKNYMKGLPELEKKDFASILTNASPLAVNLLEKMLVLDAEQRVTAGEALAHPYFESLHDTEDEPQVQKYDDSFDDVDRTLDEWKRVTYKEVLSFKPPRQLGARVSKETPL
Sequence of CSNK1D (human) (P48730 whole entry, looked up): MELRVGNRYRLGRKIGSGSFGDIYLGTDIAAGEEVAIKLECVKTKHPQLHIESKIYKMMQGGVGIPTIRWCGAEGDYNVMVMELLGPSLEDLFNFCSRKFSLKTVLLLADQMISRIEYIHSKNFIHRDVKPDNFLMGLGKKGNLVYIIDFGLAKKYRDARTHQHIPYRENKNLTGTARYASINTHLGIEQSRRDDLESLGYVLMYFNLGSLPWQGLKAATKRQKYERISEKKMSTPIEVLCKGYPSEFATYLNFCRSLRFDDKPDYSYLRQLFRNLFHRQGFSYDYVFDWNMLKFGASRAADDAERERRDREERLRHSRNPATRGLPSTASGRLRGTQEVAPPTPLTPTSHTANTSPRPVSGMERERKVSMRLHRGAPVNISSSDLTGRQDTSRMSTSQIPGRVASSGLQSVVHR
Sequence of MAP4K1 (human) (Q92918 whole entry, looked up): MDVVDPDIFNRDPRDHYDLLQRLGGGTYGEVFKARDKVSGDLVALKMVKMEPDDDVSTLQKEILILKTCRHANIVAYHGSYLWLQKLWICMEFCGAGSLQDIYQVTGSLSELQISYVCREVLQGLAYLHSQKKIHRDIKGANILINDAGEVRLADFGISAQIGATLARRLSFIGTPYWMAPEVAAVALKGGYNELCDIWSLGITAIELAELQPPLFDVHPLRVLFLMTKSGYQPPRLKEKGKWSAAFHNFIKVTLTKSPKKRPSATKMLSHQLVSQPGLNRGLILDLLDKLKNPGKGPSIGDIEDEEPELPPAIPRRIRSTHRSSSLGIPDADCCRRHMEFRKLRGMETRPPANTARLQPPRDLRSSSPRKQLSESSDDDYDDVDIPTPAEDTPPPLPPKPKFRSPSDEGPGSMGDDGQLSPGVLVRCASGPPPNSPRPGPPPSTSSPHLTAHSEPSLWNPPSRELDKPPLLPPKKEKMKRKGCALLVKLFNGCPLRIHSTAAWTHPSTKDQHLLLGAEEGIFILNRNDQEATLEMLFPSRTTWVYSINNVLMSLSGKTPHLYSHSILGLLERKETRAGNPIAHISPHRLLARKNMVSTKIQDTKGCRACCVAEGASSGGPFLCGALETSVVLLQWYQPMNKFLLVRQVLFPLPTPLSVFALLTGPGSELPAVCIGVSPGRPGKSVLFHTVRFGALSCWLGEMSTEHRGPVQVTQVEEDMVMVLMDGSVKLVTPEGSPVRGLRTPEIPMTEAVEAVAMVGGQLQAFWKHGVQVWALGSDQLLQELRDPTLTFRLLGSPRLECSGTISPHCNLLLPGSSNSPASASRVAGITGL
Sequence of PRKAA2 (human) (P54646 whole entry, looked up): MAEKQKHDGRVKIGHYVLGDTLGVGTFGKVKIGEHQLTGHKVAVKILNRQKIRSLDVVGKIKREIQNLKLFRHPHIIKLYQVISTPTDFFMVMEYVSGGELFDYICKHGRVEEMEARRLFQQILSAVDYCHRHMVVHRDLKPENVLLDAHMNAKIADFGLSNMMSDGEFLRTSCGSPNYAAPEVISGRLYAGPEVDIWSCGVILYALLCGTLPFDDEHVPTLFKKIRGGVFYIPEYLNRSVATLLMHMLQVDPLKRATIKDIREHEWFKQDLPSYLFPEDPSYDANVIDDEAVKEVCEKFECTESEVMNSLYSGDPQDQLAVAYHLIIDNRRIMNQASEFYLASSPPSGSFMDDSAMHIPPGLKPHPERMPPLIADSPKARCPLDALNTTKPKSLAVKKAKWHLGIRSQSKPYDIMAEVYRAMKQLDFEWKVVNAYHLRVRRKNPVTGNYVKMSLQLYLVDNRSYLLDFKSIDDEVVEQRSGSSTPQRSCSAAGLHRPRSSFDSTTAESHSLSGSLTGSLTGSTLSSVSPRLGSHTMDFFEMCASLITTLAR
Sequence of PTK6 (human) (Q13882 whole entry, looked up): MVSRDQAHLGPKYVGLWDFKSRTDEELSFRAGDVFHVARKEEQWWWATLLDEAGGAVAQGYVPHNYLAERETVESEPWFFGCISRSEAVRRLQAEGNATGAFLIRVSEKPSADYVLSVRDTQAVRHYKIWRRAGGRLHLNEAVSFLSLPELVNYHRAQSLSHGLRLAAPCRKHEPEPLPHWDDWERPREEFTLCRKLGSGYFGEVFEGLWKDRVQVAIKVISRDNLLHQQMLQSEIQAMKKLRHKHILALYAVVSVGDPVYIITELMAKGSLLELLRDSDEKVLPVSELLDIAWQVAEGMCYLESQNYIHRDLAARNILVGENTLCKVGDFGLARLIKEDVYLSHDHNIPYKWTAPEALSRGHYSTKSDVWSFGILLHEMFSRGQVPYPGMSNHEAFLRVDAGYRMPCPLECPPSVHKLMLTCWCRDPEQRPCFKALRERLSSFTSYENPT
Sequence of CLK1 (human) (P49759 whole entry, looked up): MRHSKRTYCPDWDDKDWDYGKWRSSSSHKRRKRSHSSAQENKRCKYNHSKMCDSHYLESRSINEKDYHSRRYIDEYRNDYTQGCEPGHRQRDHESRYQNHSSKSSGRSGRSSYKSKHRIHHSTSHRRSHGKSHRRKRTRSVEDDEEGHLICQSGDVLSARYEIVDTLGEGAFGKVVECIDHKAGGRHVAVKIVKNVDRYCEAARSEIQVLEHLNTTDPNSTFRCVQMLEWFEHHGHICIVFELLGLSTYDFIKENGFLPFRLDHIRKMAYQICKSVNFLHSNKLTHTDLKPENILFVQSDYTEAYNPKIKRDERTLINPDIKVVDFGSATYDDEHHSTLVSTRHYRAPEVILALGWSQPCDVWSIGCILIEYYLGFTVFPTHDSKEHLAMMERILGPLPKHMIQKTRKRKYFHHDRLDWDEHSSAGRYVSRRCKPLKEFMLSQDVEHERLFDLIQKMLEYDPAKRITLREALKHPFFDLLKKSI

Row | kinase still bound, per cent of control (CSNK2A1 (human)) [%] | kinase still bound, per cent of control (PRKAA2 (human)) [%] | kinase still bound, per cent of control (PTK6 (human)) [%] | kinase still bound, per cent of control (TESK1 (human)) [%] | kinase still bound, per cent of control (CLK1 (human)) [%] | kinase still bound, per cent of control (PRKACB (human)) [%] | kinase still bound, per cent of control (MAP4K1 (human)) [%] | kinase still bound, per cent of control (MAPK12 (human)) [%] | kinase still bound, per cent of control (MYO3B (human)) [%] | kinase still bound, per cent of control (FYN (human)) [%] | kinase still bound, per cent of control (FGFR2 (human)) [%] | kinase still bound, per cent of control (DCLK2 (human)) [%] | kinase still bound, per cent of control (SIK2 (human)) [%] | kinase still bound, per cent of control (TEC (human)) [%] | kinase still bound, per cent of control (AXL (human)) [%] | kinase still bound, per cent of control (ACVR2B (human)) [%] | kinase still bound, per cent of control (STK33 (human)) [%] | kinase still bound, per cent of control (SRC (human)) [%] | kinase still bound, per cent of control (SYK (human)) [%] | kinase still bound, per cent of control (STK17A (human)) [%] | Structure (SMILES) | other results
1 | 100 | 100 | 3 | 100 | 0.7 | 100 | 100 | 100 | 24 | 100 | 100 | 100 | 100 | 100 | 8.6 | 100 | 4.5 | 23 | 100 | 100 | COc1cc(N2CCC(C(N)=O)CC2)ccc1Nc1nc(N)c(Cl)c(Nc2ccccc2S(=O)(=O)C(C)C)n1 | kinase still bound, per cent of control (CHEK2 (human)): 14%; kinase still bound, per cent of control (MST1R (human)): 100%; kinase still bound, per cent of control (PIK3C2B (human)): 100%; kinase still bound, per cent of control (ULK3 (human)): 100%; kinase still bound, per cent of control (BMPR2 (human)): 100%; kinase still bound, per cent of control (CSNK1D (human)): 100%; kinase still bound, per cent of control (STK25 (human)): 100%; kinase still bound, per cent of control (TNNI3K (human)): 100%; kinase still bound, per cent of control (WEE2 (human)): 100%
2 | 100 | 100 | 100 | 100 | 100 | 100 | 100 | 100 | 100 | 100 | 100 | 0.65 | 100 | 100 | 100 | 100 | 100 | 100 | 100 | 100 | CCOc1cc(N2CCC(O)CC2)ccc1Nc1ncc2c(n1)N(C)c1ccccc1C(=O)N2C | kinase still bound, per cent of control (HIPK3 (human)): 100%; kinase still bound, per cent of control (CHEK2 (human)): 100%; kinase still bound, per cent of control (MST1R (human)): 100%; kinase still bound, per cent of control (MAP3K13 (human)): 100%; kinase still bound, per cent of control (CDKL3 (human)): 100%; kinase still bound, per cent of control (PIK3C2B (human)): 100%; kinase still bound, per cent of control (MAST1 (human)): 100%; kinase still bound, per cent of control (NIM1 (human)): 100%; kinase still bound, per cent of control (PLK2 (human)): 100%; kinase still bound, per cent of control (ERBB3 (human)): 100%; kinase still bound, per cent of control (ULK3 (human)): 100%; kinase still bound, per cent of control (GRK7 (human)): 100%; kinase still bound, per cent of control (BMPR2 (human)): 100%; kinase still bound, per cent of control (CSNK1D (human)): 100%; kinase still bound, per cent of control (STK25 (human)): 100%; kinase still bound, per cent of control (TNNI3K (human)): 100%; kinase still bound, per cent of control (WEE2 (human)): 100%
3 | 100 | 100 | 24 | 100 | 100 | 100 | 100 | 100 | 100 | 9.6 | 100 | 100 | 100 | 100 | 100 | 100 | 100 | 2.4 | 100 | 100 | Cc1cn(-c2cc(C(=O)Nc3ccc(C)c(NC(=O)c4ccno4)c3)cc(C(F)(F)F)c2)cn1 | kinase still bound, per cent of control (HIPK3 (human)): 100%; kinase still bound, per cent of control (CHEK2 (human)): 100%; kinase still bound, per cent of control (MST1R (human)): 100%; kinase still bound, per cent of control (MAP3K13 (human)): 100%; kinase still bound, per cent of control (CDKL3 (human)): 100%; kinase still bound, per cent of control (PIK3C2B (human)): 100%; kinase still bound, per cent of control (MAST1 (human)): 100%; kinase still bound, per cent of control (NIM1 (human)): 100%; kinase still bound, per cent of control (PLK2 (human)): 100%; kinase still bound, per cent of control (ERBB3 (human)): 100%; kinase still bound, per cent of control (ULK3 (human)): 100%; kinase still bound, per cent of control (GRK7 (human)): 100%; kinase still bound, per cent of control (BMPR2 (human)): 100%; kinase still bound, per cent of control (CSNK1D (human)): 100%; kinase still bound, per cent of control (STK25 (human)): 100%; kinase still bound, per cent of control (TNNI3K (human)): 29%; kinase still bound, per cent of control (WEE2 (human)): 100%
4 | 100 | 100 | 100 | 100 | 4.9 | 100 | 25 | 100 | 100 | 100 | 100 | 100 | 100 | 25 | 4 | 100 | 7 | 1.2 | 100 | 100 | COc1cc(C)c(Sc2cnc(NC(=O)c3ccc(CNC(C)C(C)C)cc3)s2)cc1C(=O)N1CCN(C(C)=O)CC1 (stereo unspecified) | kinase still bound, per cent of control (CHEK2 (human)): 100%; kinase still bound, per cent of control (MST1R (human)): 100%; kinase still bound, per cent of control (PIK3C2B (human)): 100%; kinase still bound, per cent of control (ULK3 (human)): 100%; kinase still bound, per cent of control (BMPR2 (human)): 100%; kinase still bound, per cent of control (CSNK1D (human)): 100%; kinase still bound, per cent of control (STK25 (human)): 100%; kinase still bound, per cent of control (TNNI3K (human)): 100%; kinase still bound, per cent of control (WEE2 (human)): 3.6%
5 | 100 | 3.3 | 4 | 3.8 | 100 | 27 | 4.6 | 100 | 100 | 1.4 | 3.4 | 100 | 1.9 | 0.2 | 100 | 100 | 100 | 0.15 | 4 | 100 | COc1ccc(N(C(=O)Oc2cc(C(=O)Nc3cccc(C(F)(F)F)c3)ccc2C)c2ccnc(Nc3ccc(N4CCN(C)CC4)cc3)n2)c(OC)c1 | kinase still bound, per cent of control (BMPR2 (human)): 1.1%; kinase still bound, per cent of control (CSNK1D (human)): 100%; kinase still bound, per cent of control (STK25 (human)): 100%; kinase still bound, per cent of control (TNNI3K (human)): 0.6%
